For one series, the system named is A498. The experiment in a line: Growth inhibition of Homo sapiens (human) A498 cells after 48 hr by SRB assay. The series is classed as cell-based. As to conditions: a498, 48 h. For orientation: The SRB assay estimates cell density from bound dye.
For a further series, the system named is DNA. The experiment in a line: Binding affinity to Bos taurus (calf) thymus DNA at 1:5 compound to DNA base pair ratio. The series is classed as nucleic-acid assay.
The test system of a further series is SN12C. Nature of the series: Growth inhibition of Homo sapiens (human) SN12C cells after 48 hr by SRB assay. The series is classed as cell-based.
In another series the test system is CAKI-1. Nature of the series: Growth inhibition of Homo sapiens (human) Caki1 cells after 48 hr by SRB assay. The series is classed as cell-based. As to conditions: caki-1, 48 h.
A short description of series [1]: Selectivity index, ratio of GI50 for human tumor cells to IC50 for Pneumocystis carini.
Another series deals with NCI-H460. Nature of the series: Cytotoxicity against Homo sapiens (human) NCI-H460 cells at 100 uM after 48 hr by SRB assay relative to control. The series is classed as cell-based. As to conditions: nci-h460, 48 h.
The test system of series [2] is Pneumocystis carinii. The experiment in a line: Antimicrobial activity against Pneumocystis carinii assessed as ATP level detection by bioluminescence assay. The series is classed as functional, organism-based.
Series [3] is described as follows: Binding affinity to Poly (dA-dT) DNA at 1:5 compound to DNA base pair ratio.
Another series relates to SF-268. The experiment in a line: Cytotoxicity against Homo sapiens (human) SF268 cells at 100 uM after 48 hr by SRB assay relative to control. The series is classed as cell-based. As to conditions: sf-268, 48 h.
The next series relates to MCF7. Nature of the series: Cytotoxicity against Homo sapiens (human) MCF7 cells at 100 uM after 48 hr by SRB assay relative to control. The series is classed as cell-based. As to conditions: mcf7, 48 h.
Another series relates to Malme-3M. Nature of the series: Growth inhibition of Homo sapiens (human) MALME-3M cells after 48 hr by SRB assay. The series is classed as cell-based.
A further series relates to SR. The experiment in a line: Growth inhibition of Homo sapiens (human) SR cells after 48 hr by SRB assay. The series is classed as cell-based.
Series [4] has as its system Pneumocystis carinii. The experiment in a line: Ratio of pentamidine IC50 to compound IC50 for Pneumocystis carinii assessed as ATP level detection by bioluminescence assay. The series is classed as functional.
Series [5] is described as follows: Growth inhibition of Homo sapiens (human) ovarian cancer cells after 48 hr by SRB assay. The series is classed as cell-based. As to conditions: cancer cell lines.

One may read the pGI50 as −log10 of the GI50, conventionally taken in molar units. Read a low pGI50 as a large GI50. Usually ΔTm stands for the shift of the melting midpoint relative to a reference. Broadly, the IC50 is the midpoint of a concentration-inhibition curve. As for `N=C(N)c1ccc(N2CCCN(c3ccc(C(=N)N)cc3)CC2)cc1`, the pGI50 in the series with A498, in the series with SN12C and in the series on CAKI-1 was 5.1 throughout. For the same molecule, the shift in melting temperature (ΔTm) in the series on DNA amounted to 15 °C; in [3], 23.1 °C. Moreover, the “Selectivity Index” value in series [1] is listed as 32. Moreover, the Activity in the series with NCI-H460 turned out to be 44%; in the series on SF-268 it was 94%; with MCF7, 87%. Further, in the series with Pneumocystis carinii [2], the concentration for half-maximal inhibition (IC50) was 2000 nM.
As to `c1cc(N2CCCN(c3ccc(C4=NCCCN4)cc3)CC2)ccc1C1=NCCCN1`, the Activity entry is “Toxic” with A498; “Toxic” in the series on SN12C; 28% in the series with NCI-H460; 55% in the series on SF-268; 42% with MCF7. For the same molecule, the ΔTm in the series with DNA was determined as 15.5 °C; in series [3], 21.3 °C. In addition, in [1], the “Selectivity Index” value is 18. The IC50 with Pneumocystis carinii [2] is 4500 nM.
For the molecule `c1cc(N2CCN(c3ccc(C4=NCCCN4)cc3)CC2)ccc1C1=NCCCN1`, the Activity result in the series on A498 was “Toxic”; in the series with SN12C it was “Toxic”; in the series on NCI-H460, 18%; with SF-268, 93%; with MCF7 it was 77%. Moreover, the shift in melting temperature (ΔTm) in the series on DNA amounted to 12.2 °C; in series [3] it was 17.9 °C. The “Selectivity Index” value in series [1] was >33. Also, the IC50 in the series on Pneumocystis carinii [2] is 3000 nM.
For `N=C(NC1CC1)c1ccc(N2CCN(c3ccc(C(=N)NC4CC4)cc3)CC2)cc1`, the ΔTm with DNA amounted to 14.5 °C; in series [3], 23.9 °C. The “Selectivity Index” value in [1] is >19. Besides, the Activity with NCI-H460 was 74%; with SF-268 it was 115%; with MCF7, 108%. In addition, in the series with Pneumocystis carinii [2], the IC50 worked out at 5400 nM.
Turning to `N=C(N)c1ccc(OCCCCCOc2ccc(C(=N)N)cc2)cc1` [PENTAMIDINE], the ΔTm in the series on DNA came to 11.6 °C; in [3] it was 20.6 °C. Besides, the “Selectivity Index” value in [1] amounted to 20.
Consider `CCCCNC(=N)c1ccc(N2CCCN(c3ccc(C(=N)NCCCC)cc3)CC2)cc1`, for which the negative logarithm of the GI50 (pGI50) in the series on A498 amounted to 6.8; with Malme-3M, 6.4; with SR, 6.2. Further, the shift in melting temperature (ΔTm) with DNA was 11.8 °C; in [3] it was 13.3 °C. For the same molecule, the “Selectivity Index” value in series [1] is on record as 36. The Activity with NCI-H460 was determined as 17%; in the series on SF-268, 101%; in the series with MCF7, 39%. The half-maximal inhibitory concentration (IC50) with Pneumocystis carinii [2] was 357 nM.
As for `N#Cc1ccc(N2CCCN(c3ccc(C#N)cc3)CC2)cc1`, the Activity in the series with NCI-H460 is on record as 92%; in the series on SF-268, 101%; with MCF7, 70%.
As for `N=C(NC1CC1)c1ccc(N2CCCN(c3ccc(C(=N)NC4CC4)cc3)CC2)cc1`, the shift in melting temperature (ΔTm) amounted to 15.3 °C in the series on DNA and 23.6 °C in series [3]. For the same molecule, the “Selectivity Index” value in [1] is given as >71. For the same molecule, the Activity came to 71% with NCI-H460, 104% in the series with SF-268 and 87% in the series on MCF7. Besides, the half-inhibitory concentration (IC50) with Pneumocystis carinii [2] was determined as 1400 nM.
For `N=C(N)c1ccc(NC(=O)CCCC(=O)Nc2ccc(C(=N)N)cc2)cc1`, the thermal shift (ΔTm) is 5.6 °C with DNA and 11.4 °C in series [3]. In the series on Pneumocystis carinii [4], the “Ratio IC50” value was 167. The “Selectivity Index” value in [1] is >33333. For the same molecule, the Activity in the series on NCI-H460 is reported as 105%; with SF-268, 121%; with MCF7 it was 122%.
Turning to `N=C(N)c1ccc(NC(=O)CCCCC(=O)Nc2ccc(C(=N)N)cc2)cc1`, the ΔTm with DNA was found to be 8.7 °C; in [3], 14.4 °C. Also, the “Ratio IC50” value in the series with Pneumocystis carinii [4] amounted to 167. For the same molecule, in series [1], the “Selectivity Index” value is on record as >50000. Besides, the Activity in the series on NCI-H460 is 75%; in the series with SF-268, 52%; with MCF7, 34%.
Regarding `N=C(N)c1ccc(OC(=O)c2ccc(C(=O)Oc3ccc(C(=N)N)cc3)cc2)cc1` [BIS(4-CARBAMIMIDOYLPHENYL)TEREPHTHALATE], the ΔTm in the series on DNA turned out to be 9.9 °C; in [3] it was 10.4 °C. Further, the “Selectivity Index” value in [1] is listed as >8. In addition, the figures for the Activity in the series with NCI-H460, in the series on SF-268 and with MCF7 were 96%, 94% and 79%, respectively.
In the case of `N=C(N)c1ccc(COc2ccccc2OCc2ccc(C(=N)N)cc2)cc1`, the negative logarithm of the GI50 (pGI50) in the series with A498, in the series on SN12C and in the series with CAKI-1 was 5.1 throughout. The thermal shift (ΔTm) with DNA is 0.1 °C; in [3], -0.1 °C. The “Selectivity Index” value in [1] came out at 24. Moreover, the Activity worked out at 5% in the series with NCI-H460, 27% with SF-268 and 42% in the series on MCF7. The concentration for half-maximal inhibition (IC50) in the series with Pneumocystis carinii [2] was 1700 nM.
Consider `N#Cc1ccc(N2CCN(c3ccc(C#N)cc3)CC2)cc1`, for which the ΔTm in the series on DNA is 0 °C; in [3], -0.2 °C. For the same molecule, the Activity in the series on NCI-H460 was 106%; in the series with SF-268, 105%; with MCF7, 102%. In addition, in the series on Pneumocystis carinii [2], the IC50 is > 125000 nM.
On to `N=C(N)c1ccc(OCc2cccc(COc3ccc(C(=N)N)cc3)c2)cc1`, for which the Activity result in series [5] is given as “Non-toxic”; with NCI-H460, 0%; in the series with SF-268 it was 0%; in the series on MCF7, 0%. Moreover, the shift in melting temperature (ΔTm) was determined as 14 °C in the series on DNA and 23.9 °C in series [3]. The “Selectivity Index” value in series [1] was determined as 3. The half-maximal inhibitory concentration (IC50) in the series with Pneumocystis carinii [2] turned out to be 2600 nM.

The record behind these values is ChEMBL document CHEMBL3046688, “Antitumor and Anti-Pneumocystis Carinii Activities of Novel Bisbenzamidines” (Med Chem Res, 2005).
